Consider one molecule from patent publication US9216955B2, “Polymorphic form of Fexofenadine hydrochloride, intermediates and process for its preparation” ([…] S.R.L., priority 2010, dated 2015).

For this series the following is noted: solid form.

As for `CC(C)(C(=O)O)c1ccc(C(O)CCCN2CCC(C(O)(c3ccccc3)c3ccccc3)CC2)cc1.Cl` (centres unmarked) [polymorph φ, 2-[4-[1-hydroxy-4-[4-(hydroxydiphenylmethyl)-1-piperidyl]-butyl]phenyl]-2-methylpropanoic acid], the deliquescence entry was “not deliquescent” and the hygroscopicity result was “not hygroscopic”.
